# Assay results as given in ChEMBL document CHEMBL3044948, “Synthesis and Herbicidal Activity of N-(1-Arylethenyl)-2-chloroacetamides” (Agric Biol Chem, 1991).
# Calls of active or inactive are those of the source. No cut-off for these calls is given here.
# Experiments:
# Echinochloa oryzicola [1] = experiment: Herbicidal activity against Echinochloa oryzicola at 10 g a.i/a measured after 3 weeks; type: functional, organism-based
# Echinochloa oryzicola [2] = experiment: Herbicidal activity against Echinochloa oryzicola at 1 g a.i/a measured after 3 weeks; type: functional, organism-based
SMILES,Activity (Echinochloa oryzicola [1]),Activity (Echinochloa oryzicola [2])
CC(C)=C(c1ccccc1)N(C(=O)CCl)c1c(C)cccc1C,inactive,–
C=C(c1ccccc1)N(C(=O)CCl)c1c(C)cccc1CC,Active,Active
C=C(c1cccc(Br)c1)N(C(=O)CCl)c1c(C)cccc1C,Active,inactive
C=C(c1ccccc1)N(CC1CCCO1)C(=O)CCl (stereo not given),Active,–
C=C(c1ccc(OC)cc1)N(C(=O)CCl)c1c(C)cccc1C,Active,inactive
C=C(c1ccccc1)N(C(=O)CCl)c1c(C)cccc1C,Active,Active
C=C(c1ccccc1)N(C(=O)CCl)c1cccc2ccccc12,inactive,–
CCC(C)N(C(=O)CCl)C(=C(C)C)c1ccccc1 (stereo not given),inactive,–
C=C(c1ccccc1)N(C(=O)CCl)c1ccccc1,inactive,–
CC(C)=C(c1ccccc1)N(C(=O)CCl)c1ccccc1,inactive,–
C/C=C(\c1ccccc1)N(CCCC)C(=O)CCl,Active,inactive
C=C(c1ccco1)N(C(=O)CCl)c1c(C)cccc1C,Active,–
C=C(c1ccccc1)N(C(=O)CCl)c1c(Cl)cccc1Cl,inactive,–
C=C(c1ccc(OC)cc1)N(CCCCCC)C(=O)CCl,Active,–
C=C(c1ccccc1OC)N(C(=O)CCl)c1c(C)cccc1C,Active,Active
CCCN(C(=O)CCl)C(=C(C)C)c1ccccc1,Active,inactive
C=C(c1ccccc1Cl)N(C(=O)CCl)c1c(C)cccc1C,Active,Active
C=C(c1ccccc1)N(C(=O)CCl)c1c(CC)cccc1CC,Active,inactive
C=C(c1cccn1C)N(C(=O)CCl)c1c(C)cccc1C,inactive,–
C=C(c1ccccc1)N(C(=O)CCl)c1ccccc1C,inactive,–

SMILES,Activity (Echinochloa oryzicola [1]),Activity (Echinochloa oryzicola [2])
C=C(c1ccc2ccccc2c1)N(C(=O)CCl)c1c(C)cccc1C,inactive,–
C=C(c1ccc(C#N)cc1)N(C(=O)CCl)c1c(C)cccc1C,Active,inactive
CC(C)=C(c1ccccc1)N(Cc1ccccc1)C(=O)CCl,Active,Active
CCCCCCN(C(=O)CCl)C(=C(C)C)c1ccccc1,Active,Active
C=C(c1ccccc1C)N(C(=O)CCl)c1c(C)cccc1C,Active,Active
CCN(C(=O)CCl)C(=C(C)C)c1ccccc1,Active,Active
C=C(c1ccccc1)N(C(=O)CCl)c1cc(C)nn1C,inactive,–
CC(C)=C(c1ccccc1)N(C)C(=O)CCl,Active,Active
C=C(c1ccc(Cl)c(Cl)c1)N(C(=O)CCl)c1c(C)cccc1C,inactive,–
C=CCN(C(=O)CCl)C(=C(C)C)c1ccccc1,Active,Active
C=C(c1ccccc1)N(C(=O)CCl)c1ccccc1OC,Active,–
CC(C)=C(c1ccccc1)N(C(=O)CCl)c1ccc(Cl)cc1,Active,–
CC(C)=C(c1ccccc1)N(Cc1ccco1)C(=O)CCl,Active,Active
CC(C)=C(c1ccccc1)N(CC(C)C)C(=O)CCl,inactive,–
CC(C)=C(c1ccccc1)N(C(=O)CCl)C(C)C,Active,–
CC=C(c1ccccc1)N(C(=O)CCl)c1c(C)cccc1C (mixture of isomers),Active,inactive
C=C(c1cccc([N+](=O)[O-])c1)N(C(=O)CCl)c1c(C)cccc1C,Active,–
C=C(c1ccc(Cl)cc1)N(C(=O)CCl)c1c(C)cccc1C,Active,inactive
C=CCN(C(=O)CCl)/C(=C/C)c1ccccc1,Active,inactive
C=C(c1ccc(SC)s1)N(C(=O)CCl)c1c(C)cccc1C,inactive,–
